Measured values as given in the Kinase Knowledgebase extract (Sharma et al. 2016).

Target: MAPK14 (human) (UniProt Q16539)
Test: Inhibition of MAPK14 Kinase Activity

MAPK14 (human), sequence (Q16539 whole entry, looked up): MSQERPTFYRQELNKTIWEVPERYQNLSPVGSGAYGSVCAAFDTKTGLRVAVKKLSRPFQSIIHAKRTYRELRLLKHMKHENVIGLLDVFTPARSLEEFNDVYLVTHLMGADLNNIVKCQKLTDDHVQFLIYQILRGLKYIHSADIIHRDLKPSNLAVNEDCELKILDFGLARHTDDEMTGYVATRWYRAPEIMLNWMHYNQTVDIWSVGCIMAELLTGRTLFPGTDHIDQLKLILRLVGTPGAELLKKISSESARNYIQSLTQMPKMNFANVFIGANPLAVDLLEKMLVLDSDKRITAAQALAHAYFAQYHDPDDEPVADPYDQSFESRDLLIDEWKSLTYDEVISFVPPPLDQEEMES

IC50	Structure (SMILES)
< 1000 nM	Cc1cc(Nc2c(C(=O)N3CCC[C@@H]3CO)sc3c2ccc(=O)n3-c2ccccc2Cl)ccc1F
< 1000 nM	NC[C@H]1CCCN1C(=O)c1sc2c(ccc(=O)n2-c2ccccc2)c1Nc1ccc(F)cc1F
< 1000 nM	Cc1cc(Nc2c(C(=O)N3CCC[C@H]3CN)sc3c2ccc(=O)n3-c2ccccc2)ccc1F
< 1000 nM	O=C(c1sc2c(ccc(=O)n2-c2ccc(F)cc2)c1Nc1ccc(F)cc1F)N1CCC[C@@H]1CO
< 1000 nM	Cc1cccc(-n2c(=O)ccc3c(Nc4ccc(F)c(C)c4)c(C(=O)N4CCC[C@@H]4CO)sc32)c1
< 1000 nM	CN(C)C1CN(C(=O)c2sc3c(ccc(=O)n3-c3ccccc3)c2Nc2ccc(F)cc2F)C1
< 1000 nM	O=C(c1sc2c(ccc(=O)n2CC2CC2)c1Nc1ccccc1)N1CCC[C@@H]1CO
< 1000 nM	Cc1ccc(-n2c(=O)ccc3c(Nc4ccc(F)cc4F)c(C(=O)N4CC[C@H](O)C4)sc32)cc1
< 1000 nM	O=C(c1sc2c(ccc(=O)n2-c2ccccc2)c1Nc1ccc(F)cc1F)N1CCCC(O)C1 (configuration not stated)
< 1000 nM	O=C(c1sc2c(ccc(=O)n2-c2ccccc2)c1Nc1ccc(F)c(Cl)c1)N1CCC[C@@H]1CO
< 1000 nM	Cc1cccc(Nc2c(C(=O)N3CCC[C@@H]3CO)sc3c2ccc(=O)n3-c2ccccc2)c1
< 1000 nM	N[C@@H]1CCN(C(=O)c2sc3c(ccc(=O)n3-c3ccccc3)c2Nc2ccc(F)cc2F)C1
< 1000 nM	O=C(c1sc2c(ccc(=O)n2-c2ccccc2Cl)c1Nc1ccc(F)cc1F)N1CCC[C@@H]1CO
< 1000 nM	Cc1cc(Nc2c(C(=O)N3CC[C@@H](N(C)C)C3)sc3c2ccc(=O)n3-c2ccccc2)ccc1F
< 1000 nM	CN(C)C1CCN(C(=O)c2sc3c(ccc(=O)n3-c3ccccc3)c2Nc2ccc(F)cc2F)CC1
< 1000 nM	Cc1cc(Nc2c(C(=O)N3CCC[C@@H]3CO)sc3c2ccc(=O)n3-c2ccccc2)ccc1F
< 1000 nM	NC1CCN(C(=O)c2sc3c(ccc(=O)n3-c3ccccc3)c2Nc2ccc(F)cc2F)CC1
< 1000 nM	O=C(c1sc2c(ccc(=O)n2-c2ccccc2Cl)c1Nc1ccc(F)cc1F)N1CC[C@H](O)C1
< 1000 nM	O=C(c1sc2c(ccc(=O)n2-c2ccccc2)c1Nc1ccc(F)cc1F)N1CCC(O)CC1
< 1000 nM	N#Cc1ccccc1Nc1c(C(=O)N2CC[C@@H](O)C2)sc2c1ccc(=O)n2-c1ccccc1
< 1000 nM	CC(C)(O)[C@@H]1CCCN1C(=O)c1sc2c(ccc(=O)n2-c2ccccc2)c1Nc1ccc(F)cc1F
< 1000 nM	Cc1cc(Nc2c(C(=O)N3CC[C@@H](O)C3)sc3c2ccc(=O)n3-c2ccccc2)ccc1F
< 1000 nM	O=C(c1sc2c(ccc(=O)n2-c2ccc(F)cc2)c1Nc1ccc(F)cc1F)N1CC[C@@H](O)C1
< 1000 nM	O=C(c1sc2c(ccc(=O)n2-c2ccccc2)c1Nc1ccc(F)cc1F)N1CC(O)C1

IC50	Structure (SMILES)
< 1000 nM	Cc1ccc(-n2c(=O)ccc3c(Nc4ccc(F)c(C)c4)c(C(=O)N4CC[C@@H](O)C4)sc32)cc1
< 1000 nM	Cc1ccc(-n2c(=O)ccc3c(Nc4ccc(F)c(C)c4)c(C(=O)N4CC[C@H](O)C4)sc32)cc1
< 1000 nM	Cc1cc(Nc2c(C(=O)N3CCC[C@H]3CO)sc3c2ccc(=O)n3-c2ccccc2)ccc1F
< 1000 nM	O=C(c1sc2c(ccc(=O)n2-c2ccccc2)c1Nc1ccc(F)cc1F)N1C[C@@H](O)[C@@H](O)C1
< 1000 nM	O=C(c1sc2c(ccc(=O)n2-c2ccccc2)c1Nc1ccc(F)c(Cl)c1)N1CCC[C@H]1CO
< 1000 nM	CN(C)[C@@H]1CCN(C(=O)c2sc3c(ccc(=O)n3-c3ccccc3)c2Nc2ccc(F)cc2F)C1
< 1000 nM	COC[C@@H]1CCCN1C(=O)c1sc2c(ccc(=O)n2-c2ccccc2)c1Nc1ccccc1
< 1000 nM	NC1CN(C(=O)c2sc3c(ccc(=O)n3-c3ccccc3)c2Nc2ccc(F)cc2F)C1
< 1000 nM	Cc1ccc(-n2c(=O)ccc3c(Nc4ccc(F)c(C)c4)c(C(=O)N4CCC[C@@H]4CO)sc32)cc1
< 1000 nM	O=C(c1sc2c(ccc(=O)n2-c2ccccc2)c1Nc1cccc(Cl)c1)N1CCC[C@@H]1CO
< 1000 nM	Cc1cc(Nc2c(C(=O)N3CC(O)C3)sc3c2ccc(=O)n3-c2ccccc2)ccc1F
< 1000 nM	O=C(c1sc2c(ccc(=O)n2-c2ccccc2)c1Nc1ccccc1Cl)N1CCC[C@@H]1CO
< 1000 nM	N#Cc1ccccc1Nc1c(C(=O)N2CC[C@H](O)C2)sc2c1ccc(=O)n2-c1ccccc1
< 1000 nM	NC[C@@H]1CCCN1C(=O)c1sc2c(ccc(=O)n2-c2ccccc2)c1Nc1ccc(F)cc1F
< 1000 nM	Cc1cc(Nc2c(C(=O)N3CC[C@H](O)C3)sc3c2ccc(=O)n3-c2ccccc2)ccc1F
< 1000 nM	CC(C)(O)[C@H]1CCCN1C(=O)c1sc2c(ccc(=O)n2-c2ccccc2)c1Nc1ccc(F)cc1F
< 1000 nM	Cc1ccc(-n2c(=O)ccc3c(Nc4cccc(C)c4)c(C(=O)N4CCC[C@@H]4CO)sc32)cc1
< 1000 nM	NC1CCN(C(=O)c2sc3c(ccc(=O)n3-c3ccccc3)c2Nc2ccc(F)cc2F)C1 (configuration not stated)
< 1000 nM	Cc1cc(Nc2c(C(=O)N3CC[C@H](N)C3)sc3c2ccc(=O)n3-c2ccccc2)ccc1F
< 1000 nM	O=C(c1sc2c(ccc(=O)n2-c2ccccc2)c1Nc1ccccc1)N1CCC[C@@H]1CO
< 1000 nM	Cc1cccc(Nc2c(C(=O)N3CC[C@H](O)C3)sc3c2ccc(=O)n3-c2ccccc2Cl)c1
< 1000 nM	COC[C@H]1CCCN1C(=O)c1sc2c(ccc(=O)n2-c2ccccc2)c1Nc1ccccc1
< 1000 nM	O=C(c1sc2c(ccc(=O)n2-c2ccccc2)c1Nc1ccc(F)cc1F)N1C[C@@H](O)[C@H](O)C1
< 1000 nM	Cc1cc(Nc2c(C(=O)N3CCC[C@@H]3CO)sc3c2ccc(=O)n3-c2ccc(F)cc2)ccc1F

IC50	Structure (SMILES)
< 1000 nM	O=C(c1sc2c(ccc(=O)n2-c2ccccc2)c1Nc1ccc(F)cc1F)N1CCC[C@H]1CO
< 1000 nM	Cc1cc(Nc2c(C(=O)N3CCC[C@@H]3CO)sc3c2ccc(=O)n3-c2ccc(Cl)cc2)ccc1F
< 1000 nM	Cc1cccc(Nc2c(C(=O)N3CCC[C@@H]3CO)sc3c2ccc(=O)n3-c2cccc(C)c2)c1
< 1000 nM	N[C@H]1CCN(C(=O)c2sc3c(ccc(=O)n3-c3ccccc3)c2Nc2ccc(F)cc2F)C1
< 1000 nM	Cc1cccc(-n2c(=O)ccc3c(Nc4ccc(F)c(C)c4)c(C(=O)N4CCC[C@H]4CO)sc32)c1
< 1000 nM	O=C(c1sc2c(ccc(=O)n2-c2ccccc2)c1Nc1ccccc1)N1CCC[C@H]1CO
< 1000 nM	O=C(c1sc2c(ccc(=O)n2-c2ccccc2)c1Nc1ccc(F)cc1F)N1CC[C@H](O)C1
< 1000 nM	O=C(c1sc2c(ccc(=O)n2-c2ccccc2)c1Nc1ccc(F)cc1F)N1CCC[C@@H]1CO
< 1000 nM	Cc1ccc(-n2c(=O)ccc3c(Nc4ccc(F)cc4F)c(C(=O)N4CC[C@@H](O)C4)sc32)cc1
< 1000 nM	Cc1cc(Nc2c(C(=O)N3CC[C@H](O)C3)sc3c2ccc(=O)n3-c2ccc(F)cc2)ccc1F
< 1000 nM	O=C(c1sc2c(ccc(=O)n2-c2ccccc2Cl)c1Nc1ccc(F)cc1F)N1CC[C@@H](O)C1
< 1000 nM	O=C(c1sc2c(ccc(=O)n2-c2ccc(F)cc2)c1Nc1ccc(F)cc1F)N1CC[C@H](O)C1
< 1000 nM	O=C(c1sc2c(ccc(=O)n2-c2ccccc2)c1Nc1ccc(F)cc1F)N1CC[C@@H](O)C1
< 1000 nM	N#Cc1ccccc1Nc1c(C(=O)N2CCC[C@@H]2CO)sc2c1ccc(=O)n2-c1ccccc1
< 1000 nM	Cc1cc(Nc2c(C(=O)N3CC[C@H](O)C3)sc3c2ccc(=O)n3-c2ccccc2Cl)ccc1F
< 1000 nM	Cc1cc(Nc2c(C(=O)N3CC[C@@H](N)C3)sc3c2ccc(=O)n3-c2ccccc2)ccc1F
< 1000 nM	N#Cc1ccccc1Nc1c(C(=O)N2CCC[C@H]2CO)sc2c1ccc(=O)n2-c1ccccc1
< 1000 nM	O=C(c1sc2c(ccc(=O)n2-c2ccccc2)c1Nc1ccc(F)cc1F)N1C[C@H](O)[C@@H](O)C1
< 1000 nM	O=C(c1sc2c(ccc(=O)n2-c2ccccc2)c1Nc1ccccc1Cl)N1CCC[C@H]1CO
< 1000 nM	N#Cc1cccc(Nc2c(C(=O)N3CCC[C@@H]3CO)sc3c2ccc(=O)n3-c2ccccc2)c1
< 1000 nM	CN(C)[C@H]1CCN(C(=O)c2sc3c(ccc(=O)n3-c3ccccc3)c2Nc2ccc(F)cc2F)C1
< 1000 nM	Cc1cc(Nc2c(C(=O)N3CC[C@H](N(C)C)C3)sc3c2ccc(=O)n3-c2ccccc2)ccc1F
< 1000 nM	O=c1ccc2c(Nc3ccc(F)cc3F)c(S(=O)(=O)N3CCC[C@@H]3CO)sc2n1-c1ccccc1
< 1000 nM	Cc1ccc(-n2c(=O)ccc3c(Nc4ccc(F)cc4F)c(C(=O)N4CCC[C@@H]4CO)sc32)cc1
